Measured values as given in patent publication US9758561B2 (priority 2014, dated 2017).
pEC50: −log10 of the molar value. ≈ marks a conversion by molar mass, not a printed value. Read-outs that look alike come from different tables or passages of the source.

Columns and labels:
[1] = Stability testing in solution, 7 days at 40° C. (HPLC-UV); format: physicochemical; conditions: for Stability pH 4.5: pH 4.5, 7 days at 40° C. in solution; for Stability pH 7.4: pH 7.4, 7 days at 40° C. in solution
Description: After that time course, the sample was centrifuged for 20 min at 4500 rpm and 0.2 μL of the supernatant were analysed with HPLC-UV.
For determination of the amount of the remaining peptide, the peak areas of the target compound at t0 and t7 were compared, resulting in “% remaining peptide”, following the equation % remaining peptide=[(peak area peptide t7)×100]/peak area peptide t0.
The stability is expressed as “% remaining peptide”.

[2] = Solubility testing in buffer (HPLC-UV); format: physicochemical
Description: Prior to the testing of solubility and stability of a peptide batch, its purity (HPLC-UV) was determined. […] Therefore, solutions from solid samples were prepared in different buffer systems with a concentration of 10 mg/mL compound based on the previously determined % purity. HPLC-UV was performed after 2 h of gentle agitation from the supernatant, which was obtained by 20 min of centrifugation at 4500 rpm. […] This analysis also served as starting point (t0) for the stability testing.

[3] = molecular target: T1, human GLP-1 receptor (Homo sapiens, UniProt P43220); assay: cAMP response of HEK-293 cells stably expressing human GLP-1 receptor (HTRF); format: cell-based; conditions: Table 6; read-out: EC50 hGLP-1R
T1 construct: expressed in transfected cells; host or cells: HEK-293
Description: For preparation, cells were split into T175 culture flasks and grown overnight to near confluency in medium (DMEM/10% FBS). Medium was then removed and cells washed with PBS lacking calcium and magnesium, followed by proteinase treatment with accutase (Sigma-Aldrich cat. no. A6964). Detached cells were washed and resuspended in assay buffer (1×HBSS; 20 mM HEPES, 0.1% BSA, 2 mM IBMX) and cellular density determined. They were then diluted to 400000 cells/ml and 25 μl-aliquots dispensed into the wells of 96-well plates. For measurement, 25 μl of test compound in assay buffer was added to the wells, followed by incubation for 30 minutes at room temperature. […] Potencies of peptidic compounds at the GLP-1, glucagon and GIP receptors were determined by exposing cells expressing human glucagon receptor (hGlucagon R), human GIP receptor (hGIP-R) or human GLP-1 receptor (hGLP-1R) to the listed compounds at increasing concentrations and measuring the formed cAMP as described in Methods.

[4] = pH 4.5, target concentration 10 mg/ml, read-out: solubility pH 4.5
[5] = pH 7.4, target concentration 10 mg/ml, read-out: solubility pH 7.4

T1 sequence (P43220 24-463): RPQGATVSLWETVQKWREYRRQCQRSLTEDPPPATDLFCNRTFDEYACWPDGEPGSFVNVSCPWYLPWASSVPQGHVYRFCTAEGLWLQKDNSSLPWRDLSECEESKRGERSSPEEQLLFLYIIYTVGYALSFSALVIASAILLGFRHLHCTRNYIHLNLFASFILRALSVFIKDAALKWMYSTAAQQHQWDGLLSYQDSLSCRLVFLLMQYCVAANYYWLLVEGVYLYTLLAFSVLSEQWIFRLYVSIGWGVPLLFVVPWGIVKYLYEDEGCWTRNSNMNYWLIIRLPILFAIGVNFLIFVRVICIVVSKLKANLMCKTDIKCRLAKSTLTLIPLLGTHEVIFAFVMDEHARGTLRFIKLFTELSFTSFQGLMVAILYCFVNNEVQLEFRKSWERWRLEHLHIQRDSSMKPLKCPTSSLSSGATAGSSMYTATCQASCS

| Compound | Stability pH 4.5 [1] [% remaining peptide] | Stability pH 7.4 [1] [% remaining peptide] | solubility at 2 h [2, 4] [µg/mL] | solubility at 2 h [2, 5] [µg/mL] | pEC50 [3] |
| --- | --- | --- | --- | --- | --- |
| CCCCCCCCCCCCCCCC(=O)N[C@@H](CCC(=O)N[C@@H](CCC(=O)NCCCC[C@H](NC(=O)[C@H](CCC(N)=O)NC(=O)[C@H](CCCCN)NC(=O)[C@H](CO)NC(=O)[C@H](CC(C)C)NC(=O)[C@H](CC(=O)O)NC(=O)[C@H](CO)NC(=O)[C@@H](NC(=O)[C@H](Cc1ccccc1)NC(=O)[C@@H](NC(=O)CNC(=O)[C@H](CCC(N)=O)NC(=O)[C@@H](CO)NC(=O)[C@@H](N)Cc1c[nH]cn1)[C@@H](C)O)[C@@H](C)O)C(=O)N[C@@H](CC(=O)O)C(=O)N[C@@H](CCC(=O)O)C(=O)N[C@@H](CCC(=O)O)C(=O)N[C@@H](C)C(=O)N[C@@H](C)C(=O)N[C@@H](CCCNC(=N)N)C(=O)N[C@@H](CC(C)C)C(=O)N[C@@H](Cc1ccccc1)C(=O)N[C@H](C(=O)N[C@@H](CCC(=O)O)C(=O)N[C@@H](Cc1c[nH]c2ccccc12)C(=O)N[C@@H](CC(C)C)C(=O)NC(C)(C)C(=O)N[C@@H](C)C(=O)N[C@H](C)C(=O)NCC(=O)N1CCC[C@H]1C(=O)N[C@@H](CO)C(=O)N[C@@H](CO)C(=O)NCC(=O)N[C@@H](C)C(=O)N1CCC[C@H]1C(=O)N1CCC[C@H]1C(=O)N1CCC[C@H]1C(=O)N[C@@H](CO)C(N)=O)[C@@H](C)CC)C(=O)O)C(=O)O [SEQ ID NO: 12, H-dSer-Q-G-T-F-T-S-D-L-S-K-Q-K(γE-γE-x53)-D-E-E-A-A-R-L-F-I-E-W-L-Aib-A-dAla-G-P-S-S-G-A-P-P-P-S-NH2] | 85.6 | 90.6 | 2000 (≈ 435 µM) | > 8000 | – |
| CCCCCCCCCCCCCCCC(=O)N[C@@H](CCC(=O)N[C@@H](CCC(=O)NCCCC[C@H](NC(=O)[C@H](CCC(N)=O)NC(=O)[C@H](CCCCN)NC(=O)[C@H](CO)NC(=O)[C@H](CC(C)C)NC(=O)[C@H](CC(=O)O)NC(=O)[C@H](CO)NC(=O)[C@@H](NC(=O)[C@H](Cc1ccccc1)NC(=O)[C@@H](NC(=O)CNC(=O)[C@H](CCC(N)=O)NC(=O)[C@@H](CO)NC(=O)[C@@H](N)Cc1c[nH]cn1)[C@@H](C)O)[C@@H](C)O)C(=O)N[C@@H](CC(=O)O)C(=O)N[C@@H](CCC(=O)O)C(=O)N[C@@H](CCC(=O)O)C(=O)N[C@@H](C)C(=O)N[C@@H](C)C(=O)N[C@@H](CCCNC(=N)N)C(=O)N[C@@H](CC(C)C)C(=O)N[C@@H](Cc1ccccc1)C(=O)N[C@H](C(=O)N[C@@H](CCC(=O)O)C(=O)N[C@@H](Cc1c[nH]c2ccccc12)C(=O)N[C@@H](CC(C)C)C(=O)NC(C)(C)C(=O)N[C@@H](CCCCN)C(=O)N[C@H](C)C(=O)NCC(=O)N1CCC[C@H]1C(=O)N[C@@H](CO)C(=O)N[C@@H](CO)C(=O)NCC(=O)N[C@@H](C)C(=O)N1CCC[C@H]1C(=O)N1CCC[C@H]1C(=O)N1CCC[C@H]1C(=O)N[C@@H](CO)C(N)=O)[C@@H](C)CC)C(=O)O)C(=O)O [SEQ ID NO: 24, H-dSer-Q-G-T-F-T-S-D-L-S-K-Q-K(γE-γE-x53)-D-E-E-A-A-R-L-F-I-E-W-L-Aib-K-dAla-G-P-S-S-G-A-P-P-P-S-NH2] | 81.8 | 95.4 | > 8000 | 7000 (≈ 1500 µM) | 11.62 |
